Read-outs that look alike come from different tables or passages of the source.
Tests used:
antisera from rabbit 19 = format: binding; parameters: key: +++: strong; ++: medium; +: weak reaction; poor: slight; -: none; conditions: antisera 1:2000, 2 hours at 25° C.
Procedure: (§1) An ELISA was used to screen the antisera for polyclonal antibodies to the generic hapten/conjugate of the invention using the following protocol. Microtitre plates (Costar) were coated with the appropriate hapten conjugate with ovalbumin by diluting that in 0.05M sodium hydrogen carbonate/sodium carbonate buffer (pH 9.6) to give an optimum protein concentration of 1 μg/ml previously determined by chequerboard titration; protein found by Bradford assay. 100 μl was added to each microtitre plate well and the plates placed in a moist chamber overnight, washed 3 times with 0.15 phosphate buffered saline pH7.2 with 0.05% Tween 20[RTM]: PBST), and blotted dry. Blocking was carried out by adding 250 μl per well of 5% skimmed milk for 1 hour at 25° C.
(§2) After two further washings the coated microplates were stored at -20° C. until required, whereon they were washed once with PBST. Antisera were diluted (1/1000 for general screening or doubling dilutions up to 1/512,000 for titration assays) in PSBT, applied to microtitre wells in triplicate in 50 μl amounts and incubated in a moist chamber at 25° C. for 1 hour (appropriate positive and negative controls were included--PBST, negative rabbit serum and positive serum when it had been produced). Wells were then washed 3 times in PBST and 200 μl of a 1:1500 dilution of swine anti-rabbit immunoglobulin conjugated to horseradish peroxidase (DAKO) was added to each well. Plates were incubated once more for 1 hour at 25° C. then washed 3 times with PBST.
(§3) Tetramethylbenzidine (TMB) enzyme substrate solution was prepared by adding 400 μl of 6.0 g/l TMB in DMSO to 24.5 ml of 0.1M sodium acetate buffer pH5.5 with 100 μl of 1% H2 O2 and 100 μl added to the wells. The microplates were incubated for 15 minutes in the dark at 25° C. before the reaction was stopped by adding 50 μl of 2.5M H2 SO4 and the absorbance read at 450 nm against air. Results: are given below with those of Example 6.
(§4) Assay was carried out in the same manner as Example 5 with the following modifications. Antisera was diluted 1:2000 with 1% BSA in PBST and 100 μl was incubated for 2 hours at 25° C. with 100 μl of each concentration of the unconjugated OP--in this case the generic part--in a microtitration plate. Concentrations of OP ranged from 200 to 0.001 μg ml^-1.
(§5) Cross reactivity of antisera from rabbits 19, 20 and 21 by inhibition ELISA with the various organophosphorus pesticides is shown in Table 5 in which concentration (μg ml^-1) for 50% inhibition to occur is given together with the diluent in which this is achieved--PBST or % methanol in PBST for figures.

antisera from rabbit 21 = format: binding; parameters: key: +++: strong; ++: medium; +: weak reaction; poor: slight; -: none; conditions: antisera 1:2000, 2 hours at 25° C.
Procedure: as §1, §2, §3, §4, §5

antisera from rabbit 20 = format: binding; parameters: key to cross reactivity by inhibition ELISA, Rabbit 20: +++: strong; ++: medium; +: weak reaction; poor: slight; -: none; conditions: for cross reactivity by inhibition ELISA, Rabbit 20: antisera 1:2000, 2 hours at 25° C.; for concentration for 50% inhibition: Rabbit 20
Procedure: as §1, §2, §3, §4, §5

generic antibodies = test: Relative inhibition of binding of generic antibodies to hapten conjugate; parameters: species or system rabbit; conditions: inhibition at 100 μg/ml minus inhibition at 0.1 μg/ml organophosphate
Procedure: as §4

Compound | cross reactivity by inhibition ELISA, Rabbit 19 (antisera from rabbit 19) | cross reactivity by inhibition ELISA, Rabbit 21 (antisera from rabbit 21) | cross reactivity by inhibition ELISA, Rabbit 20 (antisera from rabbit 20) | Relative inhibition of binding of generic antibodies to hapten conjugate as % of hapten + spacer inhibition (generic antibodies) | concentration for 50% inhibition (antisera from rabbit 20; diluent PBST) | concentration for 50% inhibition (antisera from rabbit 20; diluent 10% methanol in PBST)
CCOP(=O)(OCC)OC(=CCl)c1ccc(Cl)cc1Cl [Chlorfenvinphos, chlorfenvinphos] | - | + | + | 33.4% |  | 
COC(=O)/C(C)=C/OP(=S)(OC)OC [Methacrifos, methacrifos] | + | + | +++ | 89.1% | 8.2 µg/mL | 
O=C(O)CNCP(=O)(O)O [Glyphospate] | - | - | - |  |  | 
CCOc1cc(OP(=S)(OC)OC)nc(CC)n1 [Etrimfos, etrimfos] | - | poor | + | 30.8% |  | 
COP(=O)(OC)OC=C(Cl)Cl [Dichlorvos, dichlorvos] | ++ | + | ++ | 60.0% | 91.1 µg/mL | 
CNC(=O)CSP(=S)(OC)OC [Dimethoate, dimethoate] | - | + | ++ | 41.4% |  | > 150 µg/mL
CCOC(=O)CC(SP(=S)(OC)OC)C(=O)OCC (stereo not shown) [Malathion, malathion] | - | - | + | 38.6% |  | 
COP(=O)(OC)O/C(=C\Cl)c1cc(Cl)c(Cl)cc1Cl [Tetrachlorvinphos, tetrachlorvinphos] | - | poor | poor | 27.2% |  | 
